Assay in all cases: relative viability (nuclei count vs DMSO), 5 days (fraction); higher = more cells survive
Compound in assay [1]: C1CC1C(=O)NC2=NNC3=C2C=CC(=C3)C4=CC(=CC=C4)C(=O)NC5CC5 [XMD13-2] + COc1cccc2cc(-c3nc([C@H]4CC[C@H](C(=O)O)CC4)n4ncnc(N)c34)[nH]c12 [OSI-027] (partner 0.5 µM)
In a few lines:
(§1)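 Relative viability divides the nuclei count in treated wells by that in vehicle wells. Lung cancer cell lines were seeded in 1536-well plates, dosed by pin tool the next day, and fixed and stained after 5 days in one step with final 0.05% Triton X-100, 1% formaldehyde and 1 ug/ml Hoechst. Dosing was a single drug or a fixed anchor-drug dose plus five library-drug doses (not always all listed) in √10 steps, and values are medians of duplicate plates imaged at 4×.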

Compound in assay [2]: Cc1ccc(C(=O)Nc2cccc(C(F)(F)F)c2)cc1Nc1cncc(C(N)=O)c1 [ALW-II-49-7] + Cc1nc(NC(=O)N2CCC[C@H]2C(N)=O)sc1-c1ccnc(C(C)(C)C(F)(F)F)c1 [Alpelisib] (partner 2 µM)
In a few lines:
as §1

Compound in assay [3]: Cc1ccc(C(=O)Nc2cccc(C(F)(F)F)c2)cc1Nc1cncc(C(N)=O)c1 [ALW-II-49-7] + Nc1nc2[nH]cc(CCc3ccc(C(=O)N[C@@H](CCC(=O)O)C(=O)O)cc3)c2c(=O)[nH]1 [Pemetrexed] (partner 0.2 µM)
In a few lines:
as §1

Compound in assay [4]: C1CC1C(=O)NC2=NNC3=C2C=CC(=C3)C4=CC(=CC=C4)C(=O)NC5CC5 [XMD13-2] + CC1(C)CCC(c2ccc(Cl)cc2)=C(CN2CCN(c3ccc(C(=O)NS(=O)(=O)c4ccc(N[C@H](CCN5CCOCC5)CSc5ccccc5)c(S(=O)(=O)C(F)(F)F)c4)cc3)CC2)C1 [Navitoclax] (partner 0.5 µM)
In short, it runs like this: as §1

The results in this text go back to the supplement of paper PMC10307832.

Consider NCI-H650, for which the relative viability was determined as 0.522 in assay [1] (first compound 0.05 µM); 0.512 in assay [1] (first compound 0.1581 µM); 0.599 in assay [1] (first compound 0.5 µM); 0.474 in assay [1] (first compound 1.581 µM); 0.522 in assay [1] (first compound 5 µM); 1.14 in assay [2] (first compound 0.08 µM). The relative viability in assay [2] (first compound 0.253 µM) came to 1.08; in assay [2] (first compound 0.8 µM) it was 1.13; in assay [2] (first compound 2.53 µM) it was 0.353; in assay [2] (first compound 8 µM), 0.669; in assay [3] (first compound 0.08 µM), 0.985; in assay [3] (first compound 0.253 µM) it was 0.962. In addition, the relative viability in assay [3] (first compound 0.8 µM) worked out at 0.99; in assay [3] (first compound 2.53 µM) it was 0.917; in assay [3] (first compound 8 µM), 0.82.

For the cell line NCI-H661, the relative viability in assay [1] (first compound 0.05 µM) amounted to 0.848; in assay [1] (first compound 0.1581 µM), 0.688; in assay [1] (first compound 0.5 µM) it was 0.786; in assay [1] (first compound 1.581 µM), 0.63; in assay [1] (first compound 5 µM), 0.494; in assay [2] (first compound 0.08 µM) it was 0.665. The relative viability in assay [2] (first compound 0.253 µM) was 0.691; in assay [2] (first compound 0.8 µM) it was 0.645; in assay [2] (first compound 8 µM), 0.522; in assay [3] (first compound 0.08 µM), 0.974; in assay [3] (first compound 0.253 µM) it was 0.968; in assay [3] (first compound 0.8 µM), 0.944. Further, the relative viability in assay [3] (first compound 2.53 µM) came to 0.929; in assay [3] (first compound 8 µM), 0.959.

As to NCI-H727, the relative viability in assay [4] (first compound 0.05 µM) came out at 0.462; in assay [4] (first compound 0.1581 µM), 0.362; in assay [4] (first compound 0.5 µM), 0.372; in assay [4] (first compound 1.581 µM), 0.374; in assay [4] (first compound 5 µM) it was 0.3; in assay [1] (first compound 0.05 µM), 0.543. The relative viability came out at 0.68 in assay [1] (first compound 0.1581 µM); 0.573 in assay [1] (first compound 0.5 µM); 0.54 in assay [1] (first compound 1.581 µM); 0.664 in assay [1] (first compound 5 µM); 0.716 in assay [2] (first compound 0.08 µM); 0.572 in assay [2] (first compound 0.253 µM). Moreover, the relative viability was determined as 0.538 in assay [2] (first compound 0.8 µM), 0.678 in assay [2] (first compound 2.53 µM) and 0.541 in assay [2] (first compound 8 µM).

On to NCI-H1299, for which the relative viability in assay [4] (first compound 0.05 µM) was found to be 1.04; in assay [4] (first compound 0.1581 µM) it was 1.03; in assay [4] (first compound 0.5 µM) it was 1.06; in assay [4] (first compound 1.581 µM), 1.03; in assay [4] (first compound 5 µM) it was 1.09; in assay [2] (first compound 0.08 µM), 1.08. Besides, the relative viability in assay [2] (first compound 0.253 µM) came out at 0.974; in assay [2] (first compound 0.8 µM), 1.11; in assay [2] (first compound 2.53 µM), 1.17; in assay [2] (first compound 8 µM), 0.968.

Take NCI-H1563: the relative viability in assay [1] (first compound 0.05 µM) was determined as 0.811; in assay [1] (first compound 0.1581 µM), 0.731; in assay [1] (first compound 0.5 µM), 0.74; in assay [1] (first compound 1.581 µM), 0.788; in assay [1] (first compound 5 µM), 0.751; in assay [2] (first compound 0.08 µM), 0.946. The relative viability in assay [2] (first compound 0.253 µM) worked out at 0.941; in assay [2] (first compound 0.8 µM), 1.01; in assay [2] (first compound 2.53 µM), 0.977; in assay [2] (first compound 8 µM), 0.976; in assay [3] (first compound 0.08 µM), 0.73; in assay [3] (first compound 0.253 µM), 0.732. The relative viability in assay [3] (first compound 0.8 µM) turned out to be 0.718; in assay [3] (first compound 2.53 µM), 0.811; in assay [3] (first compound 8 µM) it was 0.713.

With NCI-H1623, the relative viability in assay [1] (first compound 0.05 µM) is 0.417; in assay [1] (first compound 0.1581 µM), 0.43; in assay [1] (first compound 0.5 µM), 0.408; in assay [1] (first compound 1.581 µM), 0.363; in assay [1] (first compound 5 µM) it was 0.462.

Regarding NCI-H1648, the relative viability in assay [1] (first compound 0.05 µM) came to 0.251; in assay [1] (first compound 0.1581 µM) it was 0.266; in assay [1] (first compound 0.5 µM), 0.241; in assay [1] (first compound 1.581 µM), 0.291; in assay [1] (first compound 5 µM) it was 0.259; in assay [3] (first compound 0.08 µM), 0.579. For the same cell line, the relative viability in assay [3] (first compound 0.253 µM) came out at 0.934; in assay [3] (first compound 0.8 µM), 0.802; in assay [3] (first compound 2.53 µM), 0.52; in assay [3] (first compound 8 µM), 0.738.

In the case of NCI-H1650, the relative viability in assay [4] (first compound 0.05 µM) was found to be 1.07; in assay [4] (first compound 0.1581 µM), 1.05; in assay [4] (first compound 0.5 µM), 0.993; in assay [4] (first compound 1.581 µM) it was 1.33; in assay [4] (first compound 5 µM), 1.52; in assay [1] (first compound 0.05 µM), 0.651. Besides, the relative viability came to 0.609 in assay [1] (first compound 0.1581 µM); 0.747 in assay [1] (first compound 0.5 µM); 0.555 in assay [1] (first compound 1.581 µM); 0.697 in assay [1] (first compound 5 µM); 0.352 in assay [3] (first compound 0.08 µM); 0.379 in assay [3] (first compound 0.253 µM). The relative viability in assay [3] (first compound 0.8 µM) worked out at 0.383; in assay [3] (first compound 2.53 µM), 0.378; in assay [3] (first compound 8 µM), 0.406.

Consider NCI-H1703, for which the relative viability in assay [4] (first compound 0.05 µM) came out at 1.59; in assay [4] (first compound 0.1581 µM) it was 1.19; in assay [4] (first compound 0.5 µM), 1.24; in assay [4] (first compound 1.581 µM), 0.889; in assay [4] (first compound 5 µM), 1.16; in assay [2] (first compound 0.08 µM) it was 0.331. For the same cell line, the relative viability in assay [2] (first compound 0.253 µM) worked out at 0.322; in assay [2] (first compound 0.8 µM) it was 0.258; in assay [2] (first compound 2.53 µM), 0.297; in assay [2] (first compound 8 µM), 0.182.

With NCI-H2342, the relative viability stood at 0.581 in assay [1] (first compound 0.05 µM); 0.658 in assay [1] (first compound 0.1581 µM); 0.728 in assay [1] (first compound 0.5 µM); 0.643 in assay [1] (first compound 1.581 µM); 0.597 in assay [1] (first compound 5 µM); 0.681 in assay [3] (first compound 0.08 µM). Besides, the relative viability in assay [3] (first compound 0.253 µM) was 0.856; in assay [3] (first compound 0.8 µM) it was 0.771; in assay [3] (first compound 2.53 µM), 0.791; in assay [3] (first compound 8 µM), 0.744.

Consider SW 900, for which the relative viability in assay [1] (first compound 0.05 µM) was determined as 0.654; in assay [1] (first compound 0.1581 µM), 0.707; in assay [1] (first compound 0.5 µM) it was 0.686; in assay [1] (first compound 1.581 µM), 0.457; in assay [1] (first compound 5 µM) it was 0.635; in assay [3] (first compound 0.08 µM), 0.449. The relative viability in assay [3] (first compound 0.253 µM) worked out at 0.492; in assay [3] (first compound 2.53 µM), 0.517; in assay [3] (first compound 8 µM), 0.316.
